Test results from EP0219782A2, “Use of angiotensin-converting enzyme inhibitors in the treatment of atherosclerosis, thrombosis and peripheral vascular disease” (HOECHST AKTIENGESELLSCHAFT, priority 1985, dated 1987).

Assays:
[1] = tested on: Plättchenaggregation; assay: Platelet aggregation in platelet-rich rabbit plasma in vitro (light transmission, Born); format: cell-based, Kaninchen
From the text: (§1) Plättchenreiches Kaninchenplasma wird wie von Born (Arzneimittel-Forsch. 31, 2012 (1981)) angegeben, gewonnen. Die Plättchenaggregation wird durch Erhöhung des Lichtdurchganges durch eine Küvette, die dieses Plasma enthält, gemessen. Die Plättchenzahl wird durch Verdünnung mit autologem, plättchenarmem Plasma auf 450000/mm^s eingestellt. […] Dagegen wird eine durch 4 pg/ml PGI2 bewirkte Aggregationshemmung gegen Arachidonsäure durch die Verbindung der Formel II in genannten Dosisbereich auf 100% gesteigert.

[2] = tested on: Plättchenaggregation; assay: Chronic study: ex vivo platelet aggregation after 14 days of dosing in conscious rabbits; set-up: species or system Kaninchen; details: 1 mg/kg/d for 14 days; found in all animals
From the text: as §1
(§2) Nach 1 Stunde werden die Tiere getötet und plättchenreiches Plasma gewonnen. Die Plättchenaggregation wird wie unter A) beschrieben bestimmt.
Wache Kaninchen erhielten 1 mg/kg/d der Verbindung der Formel II für 14 Tage, dann wurde wie unter 1) beschrieben weiter verfahren.

[3] = tested on: Plättchenaggregation; assay: Acute study: ex vivo platelet aggregation after a single oral dose in conscious rabbits; set-up: species or system Kaninchen; details: single oral dose 1,0 - 10,0 mg/kg, plasma taken after 1 hour
From the text: as §1
Wache Kaninchen erhielten eine einmalige orale Dosis von 1,0 - 10,0 mg/kg der Verbindung der Formel II.
as §2

CCOC(=O)[C@H](CCc1ccccc1)N[C@@H](C)C(=O)N1[C@H](C(=O)O)C[C@@H]2CCC[C@@H]21 [Formel II, N-(l-S-Carbethoxy-3-phenyl-propyl)-S-alanyl-cis-endo-2-azabicyclo[3.3.0]octan-3-S-carbonsäure]
durch PGI2 bewirkte Aggregationshemmung gegen Arachidonsäure, gesteigert auf ([1]; 4 pg/ml PGI2, compound at 0.1-10 pg/ml Plasma): 100%
Einfluß auf die durch Kollagen ausgelöste Aggregation ([1]; 0.1-10 pg/ml Plasma, stimulus 4 pg/ml Kollagen): keinen Einfluß
Einfluß auf die durch Arachidonsäure ausgelöste Aggregation ([1]; 0.1-10 pg/ml Plasma, stimulus 0.24 mmol/1 Arachidonsäure): keinen Einfluß
Einfluß auf die durch ADP ausgelöste Aggregation ([1]; 0.1-10 pg/ml Plasma, stimulus 5 mmol/1 ADP): keinen Einfluß
durch ADP ausgelöste Plättchenaggregation [2]: ausgeprägte Inhibierung
durch Arachidonsäure ausgelöste Plättchenaggregation [2]: ausgeprägte Inhibierung
Aggregation gegenüber ADP [3]: vermindert
Aggregation gegenüber Kollagen [3]: vermindert
Potenzierung der PGI2-Wirkung [3]: ebenfalls beobachtet
Aggregation gegenüber Arachidonsäure ([3]; effect especially against Arachidonsäure): vermindert
